Measurements reported in article PMC6272674, “Selected Compounds Structurally Related to Acyclic Sesquiterpenoids and Their Antibacterial and Cytotoxic Activity” (Molecules, 2015).
Like-named read-outs stand apart in the source and are kept apart here.

Tests used:
[1] = system: Acinetobacter baumannii ATCC 19606; set-up: method as in doi:10.1002/ffj.3238; details: data presented by the authors before; cited from earlier work
MTT viability, IEC6 = assay type: cell-based; details: rat, IEC-6 small intestine epithelial cells, 1000 µM (IC50 exceeded 1000 µM), read-out: viability ± standard deviation at 1000 µM
Method: (§1) Cell lines and in vitro culture conditions: The human promyelocytic leukaemia cell line HL-60 was obtained from the Centre of Molecular and Macromolecular Biology in Łódź, Poland and was cultured in RPMI 1640 medium with 20% heat-inactivated fetal bovine serum (FBS). To reduce spontaneous differentiation, the cells were never allowed to exceed a concentration of 1.0 × 10^6 cells/mL. The human keratinocyte cell line HaCaT was obtained from Cell Lines Service, Germany (CLS) and cultured in DMEM medium with 10% FBS. Human colorectal adenocarcinoma HT29 and normal epithelial IEC-6 cell lines (from ATCC) were cultured in DMEM medium with 10% FBS. The human skin melanoma cell line MEWO (from CLS) was cultured in DMEM:F12 supplemented with 2 mM L-glutamine and 10% FBS. Human fibroblasts from gingiva isolated from original tissue, HFIB-G, (from Provitro) were cultured in Quantum 333 (from Immunique). The media were supplemented with 100 U/mL penicillin and 100 µg/mL streptomycin; all media components were obtained from Life Technologies. The adherent cell lines used in the studies were seeded on microplates before they exceeded 80% of confluence. Cells were cultured at 37 °C in 5% CO2 air atmosphere/95% air atmosphere.
(§2) Cytotoxic activity: The cells (the density for HL-60 was 0.5 × 10^4 cells/100 µL, otherwise it was 1 × 10^4 cells/100 µL) were plated into each well of 96-well microtiter plates and, after their attachment to the plate surface, treated with 10 µL of the indicated concentrations of compounds for 24 h. Viability was determined by MTT assay following the treatment. MTT (3-[4.5-dimethylthiazol-2-yl]-2.5-diphenyltetrazolium bromide; Sigma, St. Louis, MO, USA) solution was added to each well and incubated for another 4 h. The resulting MTT-formazan product was dissolved by the addition of lysis buffer (20% SDS and 50% DMF). The amount of formazan was determined by measuring absorbance at 570 nm with a Synergy 2 microplate reader (BioTek, Winooski, VT, USA) operated by the Gen5 program. The experiments were conducted three times with five replications. The results are expressed as an optical density ratio of the treatment to control. All data are presented as means ± SD.

[2] = system: Klebsiella pneumoniae ATCC 700603; set-up: method as in doi:10.1002/ffj.3238; details: data presented by the authors before; cited from earlier work
[3] = system: Enterococcus faecium ATCC 35667; set-up: method as in doi:10.1002/ffj.3238; details: data presented by the authors before; cited from earlier work
MTT viability, HT29 = assay type: cell-based, human; details: human, HT29 colorectal adenocarcinoma cells, 1000 µM (IC50 exceeded 1000 µM), read-out: viability ± standard deviation at 1000 µM
Method: as §1, §2

MTT viability, HFIG = assay type: cell-based, human; details: human, HFIG (HFIB-G) gingival fibroblasts, 1000 µM (IC50 exceeded 1000 µM), read-out: viability ± standard deviation at 1000 µM
Method: as §1, §2

MTT viability, HL-60 = assay type: cell-based, human; details: human, HL-60 promyelocytic leukaemia cells, HL-60, MTT, 1000 µM (IC50 exceeded 1000 µM), read-out: viability ± standard deviation at 1000 µM
Method: as §1, §2

[4] = system: Staphylococcus aureus ATCC 43300; set-up: method as in doi:10.1002/ffj.3238; details: data presented by the authors before; cited from earlier work
[5] = system: Enterococcus faecalis ATCC 51299; set-up: method as in doi:10.1002/ffj.3238; details: data presented by the authors before; cited from earlier work
MTT viability, MEWO = assay type: cell-based, human; details: human, MEWO malignant melanoma cells, 1000 µM (IC50 exceeded 1000 µM), read-out: viability ± standard deviation at 1000 µM
Method: as §1, §2

MTT viability, HaCaT = assay type: cell-based, human; details: human, HaCaT keratinocytes, 1000 µM (IC50 exceeded 1000 µM), read-out: viability ± standard deviation at 1000 µM
Method: as §1, §2

[6] = system: Escherichia coli ATCC 25922; set-up: method as in doi:10.1002/ffj.3238; details: data presented by the authors before; cited from earlier work
[7] = system: Promyelocytic Leukaemia HL-60; assay: MTT viability, HL-60; assay type: cell-based, human; details: HL-60, MTT, range 10–1000 µM, read-out: half maximal inhibitory concentration (IC50), interpolated
Method: as §1, §2

[8] = system: colon carcinoma HCT-8 cells; set-up: method as in PMID 19084293; details: cited from earlier work
[9] = system: human melanoma MDA/MB‑435 cell lines; set-up: method as in PMID 19084293; details: cited from earlier work

SMILES	Minimum Inhibitory Concentrations MIC [1]	viability at 24 h, 1000 µM (MTT viability, IEC6)	Minimum Inhibitory Concentrations MIC [2]	Minimum Inhibitory Concentrations MIC [3]	viability at 24 h, 1000 µM (MTT viability, HT29)	viability at 24 h, 1000 µM (MTT viability, HFIG)	viability at 24 h, 1000 µM (MTT viability, HL-60)	Minimum Inhibitory Concentrations MIC [4]	Minimum Inhibitory Concentrations MIC [5]	viability at 24 h, 1000 µM (MTT viability, MEWO)	viability at 24 h, 1000 µM (MTT viability, HaCaT)	Minimum Inhibitory Concentrations MIC [6]	IC50 ([7]; Homo sapiens, HL-60, 24 h)	IC50 ([7]; 24 h)	toxicity [8]	toxicity [9]
CC(=O)CCC=C(C)C(C)CC(C)CCC=C(C)C (stereo not drawn) [Compound 11]	14 mg/L	81%	28 mg/L	18 mg/L	92%	102%	59%	26 mg/L	22 mg/L	112%	100%	28 mg/L	–	–	–	–
C=CC(C)(O)CC(C)CCC=C(C)C (stereo not drawn) [Compound 15]	16 mg/L	110%	16 mg/L	38 mg/L	104%	96%	–	46 mg/L	48 mg/L	104%	90%	28 mg/L	750 µM	–	–	–
C=CC(C)(O)CCC(C)CCC=C(C)C (stereo not drawn) [Compound 16]	22 mg/L	113%	24 mg/L	36 mg/L	102%	106%	–	48 mg/L	38 mg/L	100%	89%	32 mg/L	~1000 µM	950 µM	–	–
C=CC(C)(O)C(C)CC(C)CCC=C(C)C (stereo not drawn) [Compound 17]	16 mg/L	98%	18 mg/L	38 mg/L	108%	87%	–	48 mg/L	38 mg/L	112%	95%	46 mg/L	750 µM	–	–	–
CC(=O)CCC=C(C)CCC=C(C)C [Geranyl acetone (1), geranyl acetone, reference compound]	18 mg/L	79%	18 mg/L	28 mg/L	98%	82%	–	48 mg/L	36 mg/L	93%	89%	26 mg/L	~295 µM	–	–	–
C=CC(C)(O)CC/C=C(\C)CCC=C(C)C (stereo not drawn) [Nerolidol (2), nerolidol, reference compound]	26 mg/L	76%	16 mg/L	32 mg/L	103%	75%	–	48 mg/L	38 mg/L	99%	102 ± 5%	46 mg/L	~135 µM	–	no toxicity	no toxicity
